From the CheMixHub ionic liquid set

Experiment: xn = mol fraction of the nth substance listed

CC(C)C[C@H](N)C(=O)O + CCCC[n+]1ccn(C)c1.F[B-](F)(F)F + O
viscosity [mPa·s], 100 kPa
Conditions | 293.15 K | 298.15 K | 303.15 K | 308.15 K | 313.15 K | 318.15 K
x1 = 0.0002738, x2 = 0 | 1.013 | 0.9 | 0.807 | 0.729 | 0.663 | 0.605
x1 = 0.0002786, x2 = 0.0003728 | 1.044 | 0.93 | 0.848 | 0.763 | 0.705 | 0.65
x1 = 0.0002797, x2 = 0.0007255 | 1.076 | 0.964 | 0.881 | 0.802 | 0.749 | 0.694
x1 = 0.0002864, x2 = 0.001099 | 1.109 | 0.998 | 0.919 | 0.845 | 0.794 | 0.74
x1 = 0.0004577, x2 = 0.0007254 | 1.081 | 0.97 | 0.887 | 0.808 | 0.754 | 0.698
x1 = 0.0004593, x2 = 0 | 1.017 | 0.905 | 0.811 | 0.733 | 0.667 | 0.608
x1 = 0.0004597, x2 = 0.001099 | 1.115 | 1.004 | 0.925 | 0.85 | 0.8 | 0.746
x1 = 0.0004649, x2 = 0.0003727 | 1.049 | 0.935 | 0.852 | 0.768 | 0.709 | 0.654
x1 = 0.0006294, x2 = 0.0003726 | 1.054 | 0.94 | 0.857 | 0.772 | 0.714 | 0.659
x1 = 0.0006321, x2 = 0 | 1.022 | 0.909 | 0.815 | 0.736 | 0.67 | 0.612
x1 = 0.0006374, x2 = 0.0007252 | 1.086 | 0.975 | 0.892 | 0.812 | 0.759 | 0.704
x1 = 0.0006474, x2 = 0.001099 | 1.121 | 1.01 | 0.931 | 0.856 | 0.805 | 0.751
x1 = 0.0008066, x2 = 0 | 1.026 | 0.913 | 0.819 | 0.74 | 0.674 | 0.616
x1 = 0.0008173, x2 = 0.0003726 | 1.059 | 0.945 | 0.862 | 0.777 | 0.718 | 0.663
x1 = 0.0008279, x2 = 0.0007251 | 1.092 | 0.98 | 0.897 | 0.817 | 0.764 | 0.708
x1 = 0.0008314, x2 = 0.001099 | 1.127 | 1.016 | 0.936 | 0.861 | 0.81 | 0.756
x1 = 0.0009955, x2 = 0 | 1.031 | 0.917 | 0.823 | 0.744 | 0.678 | 0.619
x1 = 0.001003, x2 = 0.0003725 | 1.064 | 0.949 | 0.866 | 0.781 | 0.722 | 0.667
x1 = 0.001004, x2 = 0.000725 | 1.097 | 0.985 | 0.902 | 0.822 | 0.768 | 0.712
x1 = 0.00101, x2 = 0.001099 | 1.132 | 1.021 | 0.941 | 0.866 | 0.815 | 0.761
x1 = 0.001168, x2 = 0 | 1.035 | 0.921 | 0.826 | 0.747 | 0.681 | 0.622
x1 = 0.001172, x2 = 0.0007248 | 1.102 | 0.99 | 0.906 | 0.826 | 0.772 | 0.716
x1 = 0.001177, x2 = 0.0003724 | 1.069 | 0.954 | 0.871 | 0.785 | 0.726 | 0.671
x1 = 0.001183, x2 = 0.001099 | 1.138 | 1.026 | 0.946 | 0.871 | 0.82 | 0.766
x1 = 0.00135, x2 = 0.0003724 | 1.074 | 0.959 | 0.875 | 0.789 | 0.73 | 0.675
x1 = 0.001357, x2 = 0 | 1.04 | 0.925 | 0.83 | 0.751 | 0.684 | 0.625
x1 = 0.001369, x2 = 0.001098 | 1.144 | 1.031 | 0.951 | 0.876 | 0.825 | 0.771
x1 = 0.00137, x2 = 0.0007247 | 1.108 | 0.995 | 0.911 | 0.831 | 0.777 | 0.721
x1 = 0.001535, x2 = 0 | 1.044 | 0.929 | 0.834 | 0.755 | 0.688 | 0.629
x1 = 0.001541, x2 = 0.0003723 | 1.08 | 0.963 | 0.88 | 0.794 | 0.734 | 0.679
x1 = 0.001554, x2 = 0.001098 | 1.15 | 1.037 | 0.957 | 0.881 | 0.83 | 0.776
x1 = 0.001557, x2 = 0.0007246 | 1.113 | 0.999 | 0.915 | 0.835 | 0.781 | 0.725
x1 = 0.00172, x2 = 0 | 1.048 | 0.933 | 0.838 | 0.758 | 0.691 | 0.632
x1 = 0.00172, x2 = 0.0003722 | 1.085 | 0.968 | 0.884 | 0.797 | 0.738 | 0.682
x1 = 0.00172, x2 = 0.0007244 | 1.117 | 1.003 | 0.92 | 0.839 | 0.785 | 0.729
x1 = 0.001727, x2 = 0.001098 | 1.156 | 1.042 | 0.962 | 0.886 | 0.835 | 0.781

COCCOCCO + CCCC[n+]1ccn(C)c1.F[P-](F)(F)(F)(F)F
100 kPa
Conditions | viscosity [mPa·s]
283.15 K, x2 = 0.05331 | 7.5
283.15 K, x2 = 0.09804 | 9.72
283.15 K, x2 = 0.19 | 15.75
283.15 K, x2 = 0.2921 | 25.91
283.15 K, x2 = 0.384 | 39.17
283.15 K, x2 = 0.4556 | 57.5
283.15 K, x2 = 0.5782 | 97.4
283.15 K, x2 = 0.6754 | 141.2
283.15 K, x2 = 0.7826 | 218.3
283.15 K, x2 = 0.8947 | 394
283.15 K, x2 = 0.9428 | 522
293.15 K, x2 = 0.04991 | 5.319
293.15 K, x2 = 0.09685 | 6.745
293.15 K, x2 = 0.1962 | 10.81
293.15 K, x2 = 0.291 | 16.42
293.15 K, x2 = 0.4 | 25.65
293.15 K, x2 = 0.5144 | 42.34
293.15 K, x2 = 0.5864 | 52.18
293.15 K, x2 = 0.673 | 67.5
293.15 K, x2 = 0.7866 | 103.1
293.15 K, x2 = 0.8943 | 187.6
293.15 K, x2 = 0.945 | 239.3
303.15 K, x2 = 0.05183 | 4.124
303.15 K, x2 = 0.09655 | 5.063
303.15 K, x2 = 0.1884 | 7.095
303.15 K, x2 = 0.2922 | 11.15
303.15 K, x2 = 0.3935 | 16.31
303.15 K, x2 = 0.5055 | 26.04
303.15 K, x2 = 0.5816 | 33.29
303.15 K, x2 = 0.6785 | 45.05
303.15 K, x2 = 0.7725 | 63.3
303.15 K, x2 = 0.9022 | 113.3
303.15 K, x2 = 0.9392 | 142.8
313.15 K, x2 = 0.04989 | 3.16
313.15 K, x2 = 0.09747 | 3.842
313.15 K, x2 = 0.1914 | 5.61
313.15 K, x2 = 0.2888 | 8.03
313.15 K, x2 = 0.3854 | 11.32
313.15 K, x2 = 0.4724 | 15.18
313.15 K, x2 = 0.5945 | 23.13
313.15 K, x2 = 0.6785 | 31.11
313.15 K, x2 = 0.7835 | 46.19
313.15 K, x2 = 0.8966 | 73.1
313.15 K, x2 = 0.9583 | 96.7

C[n+]1ccn(CCC(F)(F)C(F)(F)F)c1.F[P-](F)(F)(F)(F)F + CCCC[n+]1ccn(C)c1.F[P-](F)(F)(F)(F)F
Conditions | viscosity [mPa·s]
338.16 K, 100 kPa, x2 = 0.972 | 40.9

F[B-](F)(F)F.[Li+] + CCCC[n+]1ccn(C)c1.N#C[N-]C#N
electrical conductivity [S/m], 101 kPa
Conditions | x2 = 0.8903 | x2 = 0.9069 | x2 = 0.933 | x2 = 0.9549 | x2 = 0.9799
288.15 K | – | 0.426 | 0.514 | 0.543 | 0.622
298.15 K | 0.595 | 0.679 | 0.8 | 0.842 | 0.972
333.15 K | 1.89 | 2.07 | 2.31 | 2.41 | 2.7

CC(C)(C)O + CCCC[n+]1ccn(C)c1.O=S(=O)([N-]S(=O)(=O)C(F)(F)F)C(F)(F)F
298 K, 101 kPa
Conditions | electrical conductivity [S/m] | viscosity [mPa·s]
x1 = 0.6042 | 0.52 | –
x1 = 0.653 | 0.504 | –
x1 = 0.8516 | – | 9.27
x2 = 0.0182 | – | 4.38

CC(C)=O + CCCC[n+]1ccn(C)c1.O=S(=O)([N-]S(=O)(=O)C(F)(F)F)C(F)(F)F
296.35 K, 100 kPa, frequency 0.01 MHz
Conditions | electrical conductivity [S/m]
x2 = 0.01616 | 1.1
x2 = 0.0257 | 2.71
x2 = 0.0419 | 4.22
x2 = 0.07374 | 5.7
x2 = 0.1478 | 4.72

CCCCCCCCCO + CCCC[n+]1ccn(C)c1.O=S(=O)([N-]S(=O)(=O)C(F)(F)F)C(F)(F)F
Conditions | viscosity [mPa·s]
298 K, 100 kPa, x2 = 0.9008 | 41.28
